Data as given in a melting point compilation (Tetko et al.; mined from patent text by program, amines drawn as free bases though some values may be those of a salt).

First: CCc1nn(-c2cc(NC(=O)c3ccccc3)ccc2Cl)c(=O)n1Cc1ccc(-c2ccccc2S(=O)(=O)NC(=O)OC(C)(C)C)cc1F
Second: CCOP(=O)(/C=C/c1ccc2cc(NC(=O)C(NC(=O)OC(C)(C)C)C(C)(C)C)cc(-c3cccc4ccccc34)c2n1)OCC (stereo not drawn)
The melting point of the first is lower: 79 to 81 °C for the first, 249 to 250 °C for the second.

Compared with `COCC1CN(CCOc2ccc(NC(=O)Nc3cc(C(C)(C)C)nn3-c3ccc(C)cc3)c3ccccc23)CCO1` (stereo not drawn), `COc1ccnc(CCc2nc3cc(-c4ccc(S(=O)(=O)N5CCN(c6ccc(C)cc6)CC5)cc4)cnc3[nH]2)c1` is higher in melting point: 85 to 90 °C for the first, 150 to 154 °C for the second.

First: CC(=O)OCC1CC2c3cccc4c3C(CC2N(C)C1)CN4C(C)=O (stereo not drawn)
Second: O=C1CC2CC(Oc3nc4ccccc4[nH]3)CC2C1 (stereo not drawn)
The melting point of the first is lower: 172 to 177 °C for the first, 208 to 209 °C for the second.

First: CCCCc1ncc(/C=C(/C(=O)O)c2ccccc2)n1Cc1ccccc1Cl
Second: Cc1nc(-c2ccccc2)nc(OCC(=O)Nc2ccccc2)c1C
The melting point of the first is lower: 210 to 212 °C for the first, 212 to 213 °C for the second.

Compared with `CS(=O)(=O)N1CCCCc2nc(-c3ccncc3)sc21`, `Nc1ccc(S(=O)(=O)c2cc(Br)nc(N3CCOCC3)c2)cc1` is higher in melting point: 193 to 194 °C for the first, 244 to 245 °C for the second.

First: O=C(SCCCC(=O)N1CCC[C@H]1C(=O)O)c1ccccc1
Second: CC(=NOCCOc1ccc(C(=O)O)c(O)c1)c1ccccc1
The melting point of the first is higher: 159 to 161 °C for the first, 149 to 150 °C for the second.

Compared with `CCCCCCC1OC(=O)c2cc(NC(C)=O)ccc21` (stereo not drawn), `CCCCCc1ccc(OCC(=O)O)c(CCCCC)c1` is lower in melting point: 135 to 137 °C for the first, 115 to 120 °C for the second.

First: N#CCCSN1C(=O)c2ccccc2C1=O
Second: COC(=O)Cn1c2c(c3ccccc3c1=O)C(=O)c1ccccc1-2
The melting point of the first is lower: 162 to 164 °C for the first, 248 to 251 °C for the second.

First: Cc1oc(-c2ccccc2)nc1COc1ccc(CON=C(CCC(=O)O)c2ccco2)cc1
Second: Cc1oc(-c2ccccc2)nc1COc1ccc(CON=C(CCC(N)=O)c2ccccc2)cc1
The melting point of the first is higher: 124 to 125 °C for the first, 110 to 112 °C for the second.

Compared with `Cc1ccc(C)n1C(C)c1ncccc1F` (stereo not drawn), `Cc1cc(-c2cc(N)ccc2F)cc(C)n1` is higher in melting point: 82 to 84 °C for the first, 142 to 145 °C for the second.

First: CCOC(=O)C(C)(C)CCCCCOc1ccc(-c2csc(NC(=O)NC3CCCCC3)n2)cc1
Second: CS(=O)(=O)c1ccc([C@@H](CC2CCCC2)C(=O)Nc2nc3ccccc3s2)cc1
The melting point of the first is higher: 106 to 108 °C for the first, 100 to 105 °C for the second.

Compared with `OC(c1ccccc1)c1cccnn1` (stereo not drawn), `N#Cc1cc(N)ccc1Oc1ccccc1` is lower in melting point: 130 to 135 °C for the first, 89 °C for the second.

First: Cc1[nH]c2ccc(C(=O)c3ccccc3)cc2c1C=O
Second: COC(=O)c1c2ccccc2nc2c3ccccc3n(C)c12
The melting point of the first is higher: 227 to 230 °C for the first, 127 °C for the second.

Compared with `CN1CCC(=C2c3c(ccn3C)C=Cn3cnnc32)CC1`, `COc1c2ccccc2nc2c1c(C)nn2-c1ccccn1` is lower in melting point: 262 °C for the first, 44 to 47 °C for the second.

First: CCCNC(=O)COC1c2ccccc2C(=O)N1c1ccc2ccc(OC)nc2n1 (stereo not drawn)
Second: COc1ccc(CCC(=O)NCc2ccccc2)cc1
The melting point of the first is higher: 174 °C for the first, 92 to 94 °C for the second.

Compared with `CCCCOc1nc(N)c2[nH]c(=O)n(CCCCN(CC(C)(C)CN(C)C)S(=O)(=O)c3cccc(CC(=O)O)c3)c2n1`, `CCCCCCCCCCOC(=O)C1=C(C)NC(N)=C(C(=O)OCC)C1c1cccc([N+](=O)[O-])c1` (stereo not drawn) is higher in melting point: 175 to 176 °C for the first, 190 to 191 °C for the second.

First: CCn1c(=O)c2[nH]c(/C=C/c3ccc(OC)c(C)c3C)nc2n(CC)c1=O
Second: COc1ccc(Cl)c(OC)c1C(=O)O
The melting point of the first is higher: > 280 °C for the first, 132 to 133 °C for the second.

First: COC(=O)CCc1cc2cc(Cl)ccc2n1S(=O)(=O)c1ccc2nc(NC(C)=O)sc2c1
Second: CS(=O)(=O)CCCCC(c1cc(Cl)ccc1F)S(=O)(=O)c1ccc(Cl)cc1 (stereo not drawn)
The melting point of the first is higher: 217 to 221 °C for the first, 116 to 117 °C for the second.

Compared with `NC(=O)c1sc2nccc(N3CCCC(c4ccccc4)C3)c2c1N` (stereo not drawn), `c1ccc(C2CCc3ccccc3S2)cc1` (stereo not drawn) is lower in melting point: 267 to 269 °C for the first, 45 to 49 °C for the second.

First: NC(=O)c1ccc(C(F)(F)F)cc1N1CCc2nc(NS(=O)(=O)c3cc(C(F)(F)F)cc(C(F)(F)F)c3)sc2C1
Second: COc1ccc(C(F)(F)F)cc1Nc1cccn2nc(Cl)nc12
The melting point of the first is higher: 225 to 228 °C for the first, 144 to 146 °C for the second.

First: Clc1cc(CC(Cl)Cl)cnc1Cl
Second: CC(C=O)C(C(=O)O)c1ccc(Cl)c(Cl)c1 (stereo not drawn)
The melting point of the first is lower: 89 to 90 °C for the first, 124 to 126 °C for the second.

First: NC(=O)Cc1ccc2c(c1)CCc1cccnc1S2
Second: CC(C)C(=O)N[C@@H]1CCc2c(c3cc(-c4ccno4)ccc3n2Cc2cccc(F)c2)C1
The melting point of the first is lower: 165 to 166 °C for the first, 238 to 241 °C for the second.

Compared with `CN(CCNC(=C[N+](=O)[O-])SCc1ccccc1)Cc1ccc(Cl)nc1`, `O=C(O)CCc1conc1-c1ccc(-c2ccccc2)cc1` is higher in melting point: 119 to 123 °C for the first, 169 to 170 °C for the second.

Compared with `Cc1nn(-c2ccc(Cl)c3c2CC(C)O3)c(=O)[nH]1` (stereo not drawn), `COc1ccccc1-c1c(C2CCN(C)CC2)[nH]c(=O)c2ccccc12` is lower in melting point: 208 to 209 °C for the first, 153 to 155 °C for the second.

First: CN1CCCNC1=Nc1ccccc1N1CCOCC1
Second: CC(C)NC(=O)N1CCc2[nH]cnc2C1c1ccccn1 (stereo not drawn)
The melting point of the first is lower: 138 to 139 °C for the first, 240 °C for the second.

First: COc1cc(C(=O)[C@H](C)NC(=O)C(F)(F)F)c(OC)cc1Br
Second: COc1cc2c(cc1OC)C1N=Cc3cc4c(cc3C1CC2)OCO4 (stereo not drawn)
The melting point of the first is lower: 144 to 145 °C for the first, 208 to 210 °C for the second.

First: N#Cc1c(NC(=O)C2CCCCC2)sc(-c2ccccc2)c1Br
Second: Cc1c(-c2ccccc2)c(N2CC[C@H](N(C)C)C2)c2oc(-c3ccccc3[N+](=O)[O-])nc2c1C#N
The melting point of the first is higher: 167 to 168 °C for the first, 139 to 142 °C for the second.

Compared with `CC(=O)OC1CC(C)(C)N(OC(C)=O)C(C)(C)C1`, `CCOC1=CC2=CCC3C4CC(C)(C)C(=O)C4(C)CCC3C2(C)CC1` (stereo not drawn) is higher in melting point: 72 to 73 °C for the first, 133 to 137 °C for the second.

Compared with `CC1(C)OC(=O)Nc2ccc(-c3cccc(-c4nccs4)c3)cc21`, `CCOCCNC(=O)c1ccc(CN2C(=O)C3(COc4cc5c(cc43)CCO5)c3ccccc32)cc1` (stereo not drawn) is lower in melting point: 223 to 224 °C for the first, 84 to 85 °C for the second.

First: O=[N+]([O-])c1c(Br)nn(CCO)c1Br
Second: CCCC(=O)c1noc2ccccc12
The melting point of the first is higher: 103 to 105 °C for the first, 33 to 35 °C for the second.

First: O=C(O)CCCCCCCCCCCCCCCCC(=O)ON1C(=O)CCC1=O
Second: CCCCCCCCCOC1CCC(=O)N1 (stereo not drawn)
The melting point of the first is higher: 120 to 122 °C for the first, 46 to 48 °C for the second.

First: N#CC1c2ccccc2Oc2ccccc21
Second: C[C@H](NC(C#N)CCc1ccccc1)C(=O)O (stereo partly drawn)
The melting point of the first is lower: 97 to 98 °C for the first, 115 °C for the second.

First: CC1(C)CC(=NO)c2cc(F)ccc2O1
Second: CSc1nn2c(O)cc(O)nc2c1S(=O)(=O)c1ccccc1
The melting point of the first is lower: 108 to 110 °C for the first, > 230 °C for the second.

Compared with `O=C1N(CCCCCl)CCN1C1CCCCC1`, `CC12CC3OC3CC1CCC1C2CCC2(C)C(O)C(N3CCC4(CC3)OCCO4)CC12` (stereo not drawn) is higher in melting point: 30 to 35 °C for the first, 186 to 188 °C for the second.

First: CSc1nn2c(N)cc(C)nc2c1S(=O)(=O)c1cccnc1
Second: CCOCn1nccc1C(O)c1ccc(O)c(Cl)c1Cl (stereo not drawn)
The melting point of the first is higher: 227 to 228 °C for the first, 150 °C for the second.

First: Nc1nc(NCC(O)CO)c2ncn(C3C=CC(CO)C3)c2n1 (stereo not drawn)
Second: CCOC(=O)c1cc(C#N)cc(CO)n1
The melting point of the first is higher: 119 to 121 °C for the first, 87.5 °C for the second.

`CC1(C)CC(N(c2nc(F)nc(N(C3CC(C)(C)N(O)C(C)(C)C3)C3CC(C)(C)N(O)C(C)(C)C3)n2)C2CC(C)(C)N(O)C(C)(C)C2)CC(C)(C)N1O` showed a melting point of 254 to 257 °C.
